The source of these data is patent publication US20060247227A1, “Substituted piperidines as histamine h3 receptor ligands” (priority 2003, published 2006).

Structures can show the parent of a compound that is named as a salt.

A word on the Ki: it is a dissociation constant, usually derived from enzyme kinetics or from competition with a known ligand.

This test deals with T1, histamine H3 receptor (Homo sapiens, UniProt Q9Y5N1).
T1 construct: expressed in transfected cells; host or cells: CHO K1 cells carrying pSwitch, transfected with pGeneH3 and induced with mifepristone; clone 3H3; membranes
T1 sequence (Q9Y5N1 whole entry): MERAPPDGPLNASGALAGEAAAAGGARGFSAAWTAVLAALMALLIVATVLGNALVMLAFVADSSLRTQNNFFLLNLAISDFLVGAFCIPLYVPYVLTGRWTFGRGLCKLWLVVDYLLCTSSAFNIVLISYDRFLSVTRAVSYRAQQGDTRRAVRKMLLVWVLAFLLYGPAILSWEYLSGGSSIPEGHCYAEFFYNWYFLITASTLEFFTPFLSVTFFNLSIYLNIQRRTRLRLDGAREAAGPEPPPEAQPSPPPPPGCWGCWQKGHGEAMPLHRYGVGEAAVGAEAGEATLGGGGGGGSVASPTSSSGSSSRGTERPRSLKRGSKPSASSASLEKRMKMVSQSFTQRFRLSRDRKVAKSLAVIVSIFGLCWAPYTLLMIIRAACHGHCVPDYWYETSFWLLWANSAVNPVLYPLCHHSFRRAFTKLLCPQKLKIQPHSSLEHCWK
Kind of test: Histamine H3 functional antagonist assay ([35S]GTPγS, SPA, membranes of CHO K1 cells expressing the receptor). It counts as biochemical. The note with it: histamine-stimulated GTPγS binding, membranes with human H3. An excerpt: A membrane preparation containing histamine H3 receptors may be prepared in accordance with the following procedures:
(i) Generation of Histamine H3 Cell Line
DNA encoding the human histamine H3 gene (Huvar, A. et al. (1999) Mol. Pharmacol. 55(6), 1101-1107) was cloned into a holding vector, pCDNA3.1 TOPO (InVitrogen) and its cDNA was isolated from this vector by restriction digestion of plasmid DNA with the enzymes BamH1 and Not-1 and ligated into the inducible expression vector pGene (InVitrogen) digested with the same enzymes. The GeneSwitch™ system (a system where in transgene expression is switched off in the absence of an inducer and switched on in the presence of an inducer) was performed as described in U.S. Pat. Nos. 5,364,791; 5,874,534; and 5,935,934. Ligated DNA was transformed into competent DH5α E. coli host bacterial cells and plated onto Luria Broth (LB) agar containing Zeocin™ (an antibiotic which allows the selection of cells expressing the sh ble gene which is present on pGene and pSwitch) at 50 μg ml^−1. Colonies containing the re-ligated plasmid were identified by restriction analysis. DNA for transfection into mammalian cells was prepared from 250 ml cultures of the host bacterium containing the pGeneH3 plasmid and isolated using a DNA preparation kit (Qiagen Midi-Prep) as per manufacturers guidelines (Qiagen).
CHO K1 cells previously transfected with the pSwitch regulatory plasmid (InVitrogen) were seeded at 2×10e6cells per T75 flask in Complete Medium, containing Hams F12 (GIBCOBRL, Life Technologies) medium supplemented with 10% v/v dialysed foetal bovine serum, L-glutamine, and hygromycin ([…]), 24 hours prior to use. Plasmid DNA was transfected into the cells using Lipofectamine plus according to the manufacturers guidelines (InVitrogen). 48 hours post transfection cells were placed into complete medium supplemented with […] Zeocin™.
10-14 days post selection 10 nM Mifepristone (InVitrogen), was added to the culture medium to induce the expression of the receptor. 18 hours post induction cells were detached from the flask using ethylenediamine tetra-acetic acid (EDTA; 1:5000; InVitrogen), following several washes with phosphate buffered saline pH 7.4and resuspended in Sorting Medium containing Minimum Essential Medium (MEM), without phenol red, and supplemented with Earles salts and 3% Foetal Clone II (Hyclone). Approximately 1×10e7 cells were examined for receptor expression by staining with a rabbit polyclonal antibody, 4a, raised against the N-terminal domain of the histamine H3 receptor, incubated on ice for 60 minutes, followed by two washes in sorting medium. Receptor bound antibody was detected by incubation of the cells for 60 minutes on ice with a goat anti rabbit antibody, conjugated with Alexa 488 fluorescence marker (Molecular Probes). Following two further washes with Sorting Medium, cells were filtered through a 50 μm Filcon™ (BD Biosciences) and then analysed on a FACS Vantage SE Flow Cytometer fitted with an Automatic Cell Deposition Unit. Control cells were non-induced cells treated in a similar manner. Positively stained cells were sorted as single cells into 96-well plates, containing Complete Medium containing 500 μg ml^−1 Zeocin™ and allowed to expand before reanalysis for receptor expression via antibody and ligand binding studies. One clone, 3H3, was selected for membrane preparation.
(ii) Membrane Preparation from Cultured Cells
All steps of the protocol are carried out at 4° C. and with pre-cooled reagents. The cell pellet is resuspended in 10 volumes of buffer A2 containing 50 mM N-2-hydroxyethylpiperazine-N′-2-ethanesulfonic acid (HEPES) (pH 7.40) supplemented with […] leupeptin (acetyl-leucyl-leucyl-arginal; Sigma L2884), 25 μg/ml bacitracin (Sigma B0125), 1 mM ethylenediamine tetra-acetic acid (EDTA), 1 mM phenylmethylsulfonyl fluoride (PMSF) and 2×10e-6M pepstain A (Sigma). […]
For the compound `FC(F)(F)c1ccc(N2CCC(OC3CCN(C4CCC4)CC3)CC2)nn1` [Example E82, 3-{4-[(1-Cyclobutyl-4-piperidinyl)oxy]-1-piperidinyl}-6-(trifluoromethyl)pyridazine hydrochloride], the Ki was less than 0.316 nM.
As for `CC(C)N1CCC(OC2CCN(c3ccc(C(F)(F)F)nn3)CC2)CC1` [Example E83, 3-(4-{[1-(1-Methylethyl)-4-piperidinyl]oxy}-1-piperidinyl)-6-(trifluoromethyl)pyridazine], the figure is less than 10 nM; as for `FC(F)(F)c1cnc(N2CCC(OC3CCN(C4CCC4)CC3)CC2)cn1` [Example E84, 2-{4-[(1-Cyclobutyl-4-piperidinyl)oxy]-1-piperidinyl}-5-(trifluoromethyl)pyrazine hydrochloride], no more than 1 nM; as for `CC(C)N1CCC(OC2CCN(c3cnc(C(F)(F)F)cn3)CC2)CC1` [Example E85, 2-(4-[1-(1-Methylethyl)-4-piperidinyl]oxy}-1-piperidinyl)-5-(trifluoromethyl)pyrazine hydrochloride], no more than 1 nM.
With `FC(F)(F)c1ccc(N2CCC(OC3CCN(C4CCC4)CC3)CC2)nc1` [Example E86, 2-{4-[(1-Cyclobutyl-4-piperidinyl)oxy]-1-piperidinyl}-5-(trifluoromethyl)pyridine hydrochloride], the Ki was no more than 1 nM.
`CC(C)N1CCC(OC2CCN(c3ccc(C(F)(F)F)cn3)CC2)CC1` [Example E87, 2-(4-{[1-(1-Methylethyl)-4-piperidinyl]oxy}-1-piperidinyl)-5-(trifluoromethyl)pyridine hydrochloride] had a Ki of less than 10 nM.
The compound `FC(F)(F)c1ncc(N2CCC(OC3CCN(C4CCC4)CC3)CC2)cn1` [Example E88, 5-{4-[(1-Cyclobutyl-4-piperidinyl)oxy]-1-piperidinyl}-2-(trifluoromethyl)pyrimidine] showed a Ki of less than 0.316 nM.
Next, `CC(C)N1CCC(OC2CCN(c3cnc(C(F)(F)F)nc3)CC2)CC1` [Example E89, 5-(4-{[1-(1-Methylethyl)-4-piperidinyl]oxy}-1 piperidinyl)-2-(trifluoromethyl) pyrimidine]: no more than 1 nM; `CCC(=O)c1ccc(N2CCC(OC3CCN(C4CCC4)CC3)CC2)cc1` [Example E90, 1-(4-{4-[(1-Cyclobutyl-4-piperidinyl)oxy]-1-piperidinyl}phenyl)-1-propanone]: no more than 1 nM; `O=C(c1ccc(N2CCC(OC3CCN(C4CCC4)CC3)CC2)cc1)C1CC1` [Example E91]: no more than 1 nM.
`CC(=O)c1ccc(N2CCC(OC3CCN(C4CCC4)CC3)CC2)nc1` [Example E93, 1-(6-{4-[(1-Cyclobutyl-4-piperidinyl)oxy]-1-piperidinyl}-3-pyridinyl)ethanone] had a Ki of no more than 1 nM.
Next, `Cc1ccc2cc(N3CCC(OC4CCN(C5CCC5)CC4)CC3)ccc2n1` [Example E94, 6-{4-[(1-Cyclobutyl-4-piperidinyl)oxy]-1-piperidinyl}-2-methylquinoline hydrochloride]: no more than 1 nM; `CC(C)N1CCC(OC2CCN(c3ccc(C(=O)OC(C)(C)C)nc3)CC2)CC1` [Example E95, 1,1-Dimethylethyl 5-(4-{[1-(1-methylethyl)-4-piperidinyl]oxy}-1-piperidinyl)-2-pyridinecarboxylate]: no more than 1 nM; `CC(C)(C)OC(=O)c1ccc(N2CCC(OC3CCN(C4CCC4)CC3)CC2)cn1` [Example E96, 1,1-Dimethylethyl 5-{4-[(1-cyclobutyl-4-piperidinyl)oxy]-1-piperidinyl}-2-pyridinecarboxylate]: no more than 1 nM.
Next, `CC(=O)c1ccc(N2CCC(OC3CCN(C(C)C)CC3)CC2)cc1` [Example E97, 1-[4-(4-{[1-(Methylethyl)-4-piperidinyl]oxy}-1-piperidinyl)phenyl]ethanone]: no more than 1 nM.
On to `CC(=O)Nc1ccc(N2CCC(OC3CCN(C4CCC4)CC3)CC2)cc1F` [Example E98, N-(4-{4-[(1-Cyclobutyl-4-piperidinyl)oxy]-1-piperidinyl}-2-fluorophenyl)acetamide hydrochloride], for which the Ki is no more than 1 nM.
